From patent EP0384522A1, “Antiviral tetrahydroimidazo[1,4]benzodiazepin-2-thiones” (priority 1989, dated 1990)
Converted amounts (≈) assume the structure as drawn. Where two headings read alike, the source gives them in different places.

What was measured:
Format in all cases: cell-based
in vitro = settings: human, mt-4 cells, CD₅₀ (50% cytotoxic dose)
Method: (§1) A rapid, sensitive and automated assay procedure was used for the in-vitro evaluation of anti-HIV agents. An […] T4-cell line, MT-4, which was previously shown (Koyanagi et al., Int. J. Cancer, 36, 445-451, 1985) to be highly susceptible to and permissive for HIV infection, served as the target cell line. Inhibition of the HIV-induced cytopathic effect was used as the end point. The viability of both HIV- and mock-infected cells was assessed spectrophotometrically via the in-situ reduction of 3-(4,5-dimethylthiazol-2-yl)-2,5-diphenyltetrazolium bromide (MTT). The 50% cytotoxic dose (CD₅₀ in µg/ml) was defined as the concentration of compound that reduced the absorbance of the mock-infected control sample by 50%. The percent protection achieved by the compound in HIV-infected cells was calculated by the following formula: [formula] whereby (ODT)HIV is the optical density measured with a given concentration of the test compound in HIV-infected cells; (ODC)HIV is the optical density measured for the control untreated HIV-infected cells; (ODC)MOCK is the optical density measured for the control untreated mock-infected cells; all optical density values were determined at 540 nm. The dose achieving 50% protection according to the above formula was defined as the 50% effective dose (ED₅₀ in µg/ml). The ratio of CD₅₀ to ED₅₀ was defined as the selectivity index (SI).

HIV = experiment: Inhibition of the HIV-induced cytopathic effect in MT-4 cells (MTT assay); settings: for EC50: Human immunodeficiency virus 1, MT4, dose achieving 50% protection of HIV-infected MT-4 cells, read-out: ED₅₀ (50% effective dose); for EC50 / ED₅₀ (50% effective dose): MTT, 540 nm; for ED₅₀ (50% effective dose): dose achieving 50% protection of HIV-infected MT-4 cells
Method: as §1

mock-infected MT-4 cells = experiment: in vitro; settings: human
Method: as §1

| Structure (SMILES) | EC50 (HIV) [µg/mL] | CC50 (in vitro) [µg/mL] | SI (selectivity index) (HIV; ratio of CD₅₀ to ED₅₀) | CD₅₀ (50% cytotoxic dose) (mock-infected MT-4 cells) [µg/mL] | SI (selectivity index) (HIV) | ED₅₀ (50% effective dose) (HIV) [µg/mL] |
| --- | --- | --- | --- | --- | --- | --- |
| CC(C)=CCN1Cc2cccc3[nH]c(=S)n(c23)CC1C (racemic) [compound 4, (±)-4,5,6,7-tetrahydro-5-methyl-6-(3-methyl-2-butenyl)imidazo[4,5,1-jk][1,4]benzodiazepine-2(1H)-thione] | 0.013 (≈ 0.0452 µM) | 25 (≈ 87 µM) | 1923 |  |  |  |
| CCCN1Cc2cccc3[nH]c(=S)n(c23)CC1C (stereo not drawn) [compound 1, 4,5,6,7-tetrahydro-5-methyl-6-propylimidazo-[4.5.1-jk][1,4]benzodiazepine-2(1H)-thione] | 0.155 (≈ 0.593 µM) | 147 (≈ 562 µM) | 948 |  |  |  |
| CC(C)=CCN1Cc2cc(Cl)cc3[nH]c(=S)n(c23)C[C@@H]1C [compound 3, (+)-(S)-9-chloro-4,5,6,7-tetrahydro-5-methyl-6-(3-methyl-2-butenyl)imidazo[4,5,1-jk][1,4]benzodiazepine-2(1H)-thione] |  |  |  | 10 | 20400 | 0.0005 |
| CC(C)=CCN1Cc2cccc3[nH]c(=S)n(c23)C[C@@H]1C [compound 5, (+)-(S)-4,5,6,7-tetrahydro-5-methyl-6-(3-methyl-2-butenyl)imidazo[4,5,1-jk] [1,4]benzodiazepine-2(1H)-thione] | 0.008 (≈ 0.0278 µM) | 325 (≈ 1130 µM) | 40625 |  |  |  |
| CC(C)=CCN1Cc2cccc3[nH]c(=S)n(c23)C[C@H]1C [compound 6] | 0.045 (≈ 0.157 µM) | ≥ 250 | ≧5555 |  |  |  |
| CC(C)=CCN1Cc2cc(Cl)cc3[nH]c(=S)n(c23)C[C@@H]1C [compound 7] |  |  |  | 23 | 12778 | 0.0018 |

More lines, main results first:

| EC50 (HIV) [µg/mL] | Structure (SMILES) | CC50 (in vitro) [µg/mL] | SI (selectivity index) (HIV; ratio of CD₅₀ to ED₅₀) | CD₅₀ (50% cytotoxic dose) (mock-infected MT-4 cells) [µg/mL] | SI (selectivity index) (HIV) | ED₅₀ (50% effective dose) (HIV) [µg/mL] |
| --- | --- | --- | --- | --- | --- | --- |
| 0.0126 (≈ 0.0461 µM) | C=C(C)CN1Cc2cccc3[nH]c(=S)n(c23)C[C@@H]1C [compound 8] | 4.6 (≈ 16.8 µM) | 365 |  |  |  |
| 0.0166 (≈ 0.0607 µM) | C[C@H]1Cn2c(=S)[nH]c3cccc(c32)CN1CC1CC1 [compound 9] | > 250 | >15029 |  |  |  |
